Assay results published in article PMC12670405, “Second-Generation AURKA-Targeting PROTACs: Structural Optimization toward in Vivo Degradation in Neuroblastoma” (Journal of Medicinal Chemistry, 2025).

Key:
NanoLuc-AURKA [1] = target: T1, NanoLuc-AURKA (Homo sapiens, UniProt O14965); assay: NanoBRET target engagement, live (intact) cells; type: cell-based; settings: intact HEK293T
T1 construct: Plasmids encoding full-length wild-type AURKA fused to Nano-Luc; host or cells: HEK293T
T1 sequence (O14965 1-403): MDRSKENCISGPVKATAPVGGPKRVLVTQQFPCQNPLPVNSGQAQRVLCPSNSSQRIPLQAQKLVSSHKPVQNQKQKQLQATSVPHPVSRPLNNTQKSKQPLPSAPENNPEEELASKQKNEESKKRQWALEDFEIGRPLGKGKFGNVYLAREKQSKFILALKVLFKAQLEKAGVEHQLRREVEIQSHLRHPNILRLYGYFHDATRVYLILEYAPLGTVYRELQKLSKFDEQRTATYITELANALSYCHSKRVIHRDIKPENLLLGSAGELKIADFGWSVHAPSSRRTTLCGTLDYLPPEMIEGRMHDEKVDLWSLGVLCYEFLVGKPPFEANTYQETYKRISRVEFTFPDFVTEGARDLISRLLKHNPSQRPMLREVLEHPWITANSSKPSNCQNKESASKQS
Experimental: (§1) The NanoBRET Target Engagement Assay (Promega) was performed according to the recommended instructions from the manufacturer. Plasmids encoding full-length wild-type AURKA fused to Nano-Luc via AURKA’s C-terminus (Promega, #NV1041) were transfected into HEK293T cells using FuGENE HD (Promega, #E2312). […] The plate was mixed at 900 rpm for 15 s, using an orbital shaker. For the permeabilized-mode, digitonin (Sigma-Aldrich, #D141) was additionally added at a final concentration of 50 μg/mL. Test compounds were subsequently administered in duplicate using the D300e digital dispenser (Tecan), followed by incubation for 2 h (37 °C, 5% CO2). To measure BRET, nanoglo substrate and extracellular nanoluc inhibitor (only in live-mode) (Promega #N2540) were added, and luminescence was measured using the GloMax Discover Microplate Reader (Promega) with a luminescence filter pair of 450 nm (BP filter, donor) and 600 nm (LP filter, acceptor). The NanoBRET ratio was calculated using the following formula: BRET ratio = 1000*[(acceptor signal/donor signal)with tracer – (acceptor signal/donor signal)no tracer]. Relative BRET ratios (%) were generated by normalizing to the negative DMSO control. The experiment was performed once with 2 replicate samples.
(§2) All dose–response curves were computed on GraphPad Prism using the Variable Slope (four parameters) equation. Absolute half-maximal degradation (DC50), growth inhibitory (GI50) and enzymatic inhibitory (IC50) concentrations, as well as inhibition constants (Ki) were derived from dose–response curves via interpolation. Statistical tests were performed on GraphPad Prism and detailed in the figure legends. Unless otherwise stated, “n” in the figure legends indicates the number of independent experiments conducted at different times.

HEK293T = assay: IncuCyte live-cell imaging, antiproliferative effect; type: cell-based; settings: Homo sapiens, HEK-293T, 72 h, read-out: Cell GI50 72h
How it was run: (§3)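 Cells seeded in 384-well plates (neuroblastoma 1200–5000, HEK293T 600 cells/well), adhered overnight, then compound-treated in duplicate or triplicate; confluency tracked by IncuCyte live-cell imaging. Normalized confluence averaged from 3 experiments; absolute GI50 interpolated from four-parameter variable-slope curves.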

NGP = assay: as above; type: cell-based; settings: Homo sapiens, 72 h, read-out: Cell GI50 72h, NGP (Figure 4B)
How it was run: as §3

IMR-32 = assay: as above; type: cell-based; settings: Homo sapiens, IMR-32, 72 h, read-out: Cell GI50 72h, IMR-32
How it was run: as §3

SJNB-8 = assay: as above; type: cell-based; settings: Homo sapiens, 72 h, read-out: Cell GI50 72h, SJNB-8
How it was run: as §3

RPE = assay: as above; type: cell-based; settings: 72 h, read-out: Cell GI50 72h
SK-N-AS = assay: as above; type: cell-based; settings: Homo sapiens, 72 h, read-out: Cell GI50 72h
How it was run: as §3

SK-N-SH = assay: as above; type: cell-based; settings: Homo sapiens, 72 h, read-out: Cell GI50 72h
How it was run: as §3

SK-N-BE(2)-C = assay: as above; type: cell-based, human; settings: Homo sapiens, SK-N-BE(2)-C, 72 h, read-out: Cell GI50 72h
Text: Human neuroblastoma cell lines NGP, IMR-32, SJNB-8, SK-N-BE(2)-C, SJNB-1, SK-N-SH and SK-N-AS, as well as benign immortalized cell lines RPE and HEK293T were either bought commercially or obtained through research laboratories. […] Screening for mycoplasma contamination occurred routinely on the cells. Human neuroblastoma cell lines SH-SY5Y_shABCB1 & SH-SY5Y_shNTC were generated by transduction with pLKO.1-ABCB1_TRCN0000059683 shRNA (Sigma MISSION SHCLND) or pLKO.1-puro NT shRNA (Sigma MISSION SHC002) vectors respectively (Supplementary Table S6), packaged using Lenti-X293T (Clontech). Transduced cells were selected with 2 μg/mL puromycin. These cells were cultured in DMEM 4.5 g/L D-Glucose, L-Glutamine and 110 mg/L Sodium Pyruvate (Gibco, #11995065) supplemented with 10% fetal bovine serum, 1× Antibiotic-Antimycotic solution (Sigma-Aldrich, #A5955) and 1× MEM nonessential amino acids (Sigma-Aldrich, #M7145). Incubation of all cells occurred at 37 °C and 5% CO2.
Neuroblastoma cells were seeded in 384-well plates at different densities ranging from 1200 to 5000 cells/well and allowed to adhere overnight. RPE and HEK293T were seeded at 200 and 600 cells/well, respectively. Compound treatment was performed using the D300e Digital Dispenser (Tecan) in duplicate or triplicate and cell confluency was monitored over time using the IncuCyte Live-cell imaging system (Sartorius). […] Mean normalized confluences were calculated from 3 individual experiments.
as §2

NanoLuc-AURKA [2] = target: T1, NanoLuc-AURKA; assay: NanoBRET target engagement, permeabilized mode; type: binding; settings: permeabilized HEK293T
Experimental: as §1, §2

| Compound | NanoLuc-AURKA engagement in intact cells (in words) (NanoLuc-AURKA [1]) | GI50 (HEK293T) [µM] | GI50 (NGP) [µM] | GI50 (IMR-32) [µM] | GI50 (SJNB-8) [µM] | GI50 (RPE) [µM] | GI50 (SK-N-AS) [µM] | GI50 (SK-N-SH) [µM] | GI50 (SK-N-BE(2)-C) [µM] | potency relative to SK4454 and SK5527 in NanoBRET (NanoLuc-AURKA [2]) |
| --- | --- | --- | --- | --- | --- | --- | --- | --- | --- | --- |
| O=C(O)[C@]1(Cc2cccc(Nc3nccs3)n2)CC[C@@H](Oc2cccc(Cl)c2F)CC1 [MK-5108, reference compound] | stronger AURKA engagement than TAS-119 | 1.31 | 0.263 | 0.119 | 0.348 | 0.953 | 0.911 | 0.249 | 0.302 | at least 10 times |
| Cc1cc(Nc2nc(CC3(C(=O)O)CCN(C(=O)c4cccc(Cl)c4Cl)CC3)ccc2F)n[nH]1 [TAS-119, reference compound] | – | 0.184 | 0.02 | 0.011 | 0.044 | 0.25 | 0.134 | 0.03 | 0.057 | at least 10 times |
